Experimental data reported in paper PMC5814754, “Quantitative, Wide-Spectrum Kinase Profiling in Live Cells for Assessing the Effect of Cellular ATP on Target Engagement” (Cell Chemical Biology, 2018).

What was measured:
[1] = target: full-length kinase/Nluc fusion proteins (Homo sapiens, UniProt P51955); assay: Apparent affinity (EC50) of energy transfer probes by titration onto live HEK293 cells expressing kinase/Nluc fusions (Table S1); assay type: binding; conditions: NEK2, Nluc N; read-out: Probe EC50
[2] = target: full-length kinase/Nluc fusion proteins (Homo sapiens, UniProt Q9NY57); assay: as above; assay type: binding; conditions: STK32B (NP_060871), Nluc orientation N; read-out: Probe EC50
[3] = target: full-length kinase/Nluc fusion proteins (Homo sapiens, UniProt Q96PY6); assay: as above; assay type: binding; conditions: NEK1, Nluc N; read-out: Probe EC50
[4] = target: full-length kinase/Nluc fusion proteins (Homo sapiens, UniProt P17612); assay: as above; assay type: binding; conditions: PRKACA, Nluc C; read-out: Probe EC50
TRKB = conditions: read-out: Crizotinib IC50 Biochemical; ref Cui et al., 2011; cited from earlier work
[5] = target: full-length kinase/Nluc fusion proteins (Homo sapiens, UniProt P29317); assay: Apparent affinity (EC50) of energy transfer probes by titration onto live HEK293 cells expressing kinase/Nluc fusions (Table S1); assay type: binding; conditions: EPHA2, Nluc C; read-out: Probe EC50
full-length kinase/Nluc fusion proteins (Homo sapiens, UniProt P29317), sequence (P29317 24-976): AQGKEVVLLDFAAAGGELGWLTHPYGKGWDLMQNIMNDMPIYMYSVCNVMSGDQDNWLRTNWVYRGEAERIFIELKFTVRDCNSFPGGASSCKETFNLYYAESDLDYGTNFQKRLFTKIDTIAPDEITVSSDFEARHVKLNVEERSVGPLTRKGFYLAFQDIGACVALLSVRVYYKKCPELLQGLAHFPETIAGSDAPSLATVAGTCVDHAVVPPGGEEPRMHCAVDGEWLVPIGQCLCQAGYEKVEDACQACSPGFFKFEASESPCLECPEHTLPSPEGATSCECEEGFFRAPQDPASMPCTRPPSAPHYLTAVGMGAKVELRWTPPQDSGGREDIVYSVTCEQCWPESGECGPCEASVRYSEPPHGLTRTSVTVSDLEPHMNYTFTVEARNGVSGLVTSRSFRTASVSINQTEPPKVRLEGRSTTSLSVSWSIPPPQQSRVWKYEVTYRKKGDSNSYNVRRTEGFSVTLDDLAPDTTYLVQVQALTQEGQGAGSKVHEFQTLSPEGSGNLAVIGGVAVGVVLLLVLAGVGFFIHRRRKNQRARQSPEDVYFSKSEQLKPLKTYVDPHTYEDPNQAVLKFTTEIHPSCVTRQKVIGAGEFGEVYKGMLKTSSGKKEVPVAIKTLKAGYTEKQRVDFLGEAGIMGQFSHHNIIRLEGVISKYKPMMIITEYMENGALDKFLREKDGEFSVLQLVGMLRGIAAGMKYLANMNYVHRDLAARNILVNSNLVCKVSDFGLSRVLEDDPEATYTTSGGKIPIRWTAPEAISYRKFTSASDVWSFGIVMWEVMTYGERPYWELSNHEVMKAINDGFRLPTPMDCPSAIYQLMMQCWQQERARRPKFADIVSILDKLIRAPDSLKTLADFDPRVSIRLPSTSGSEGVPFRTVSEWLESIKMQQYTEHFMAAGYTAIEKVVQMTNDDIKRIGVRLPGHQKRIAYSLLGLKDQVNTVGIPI

full-length kinase/Nluc fusion proteins (Homo sapiens, UniProt P51955), sequence (P51955 whole entry, the tested form may be a part): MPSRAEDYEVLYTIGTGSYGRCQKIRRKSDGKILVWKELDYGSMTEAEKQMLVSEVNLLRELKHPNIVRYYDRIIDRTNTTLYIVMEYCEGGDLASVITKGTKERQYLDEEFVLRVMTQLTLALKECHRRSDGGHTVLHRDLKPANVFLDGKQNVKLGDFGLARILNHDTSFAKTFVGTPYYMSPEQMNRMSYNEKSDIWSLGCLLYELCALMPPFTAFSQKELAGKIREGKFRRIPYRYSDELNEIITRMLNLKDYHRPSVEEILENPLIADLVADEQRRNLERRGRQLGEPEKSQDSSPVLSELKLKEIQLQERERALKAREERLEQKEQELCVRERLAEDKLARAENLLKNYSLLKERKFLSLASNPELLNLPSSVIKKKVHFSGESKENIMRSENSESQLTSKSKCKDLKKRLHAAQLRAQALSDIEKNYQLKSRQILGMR
full-length kinase/Nluc fusion proteins (Homo sapiens, UniProt Q96PY6), sequence (Q96PY6 whole entry, the tested form may be a part): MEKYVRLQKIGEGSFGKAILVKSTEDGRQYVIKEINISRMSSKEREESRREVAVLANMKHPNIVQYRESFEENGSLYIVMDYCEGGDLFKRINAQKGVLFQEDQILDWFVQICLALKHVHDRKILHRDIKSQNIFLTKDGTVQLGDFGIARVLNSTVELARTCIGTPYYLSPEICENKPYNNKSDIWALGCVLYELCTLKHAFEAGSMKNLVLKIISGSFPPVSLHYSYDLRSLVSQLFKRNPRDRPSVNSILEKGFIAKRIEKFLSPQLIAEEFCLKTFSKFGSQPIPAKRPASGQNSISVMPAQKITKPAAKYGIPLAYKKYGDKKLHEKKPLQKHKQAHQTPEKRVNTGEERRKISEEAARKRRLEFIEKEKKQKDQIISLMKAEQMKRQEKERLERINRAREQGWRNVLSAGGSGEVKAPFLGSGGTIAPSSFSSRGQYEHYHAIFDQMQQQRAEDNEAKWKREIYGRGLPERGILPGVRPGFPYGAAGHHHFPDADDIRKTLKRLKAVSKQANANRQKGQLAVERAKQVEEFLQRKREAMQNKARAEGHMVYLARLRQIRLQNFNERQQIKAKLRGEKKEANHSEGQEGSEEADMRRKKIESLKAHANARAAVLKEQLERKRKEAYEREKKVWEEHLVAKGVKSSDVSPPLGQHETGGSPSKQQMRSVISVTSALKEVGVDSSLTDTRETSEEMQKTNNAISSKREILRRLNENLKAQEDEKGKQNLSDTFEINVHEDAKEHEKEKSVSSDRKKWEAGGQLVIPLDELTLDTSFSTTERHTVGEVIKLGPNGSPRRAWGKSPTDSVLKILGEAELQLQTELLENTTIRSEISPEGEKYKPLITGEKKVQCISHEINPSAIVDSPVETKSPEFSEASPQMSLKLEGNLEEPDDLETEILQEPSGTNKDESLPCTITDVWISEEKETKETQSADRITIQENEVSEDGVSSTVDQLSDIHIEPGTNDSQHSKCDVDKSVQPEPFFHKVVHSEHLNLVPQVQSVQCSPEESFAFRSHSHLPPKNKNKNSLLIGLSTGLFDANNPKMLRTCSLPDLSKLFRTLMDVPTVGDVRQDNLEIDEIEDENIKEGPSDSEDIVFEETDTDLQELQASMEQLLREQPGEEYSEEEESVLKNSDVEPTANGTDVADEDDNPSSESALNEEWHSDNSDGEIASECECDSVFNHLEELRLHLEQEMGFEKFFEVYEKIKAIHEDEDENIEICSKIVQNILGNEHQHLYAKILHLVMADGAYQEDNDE
full-length kinase/Nluc fusion proteins (Homo sapiens, UniProt Q9NY57), sequence (Q9NY57 whole entry, the tested form may be a part): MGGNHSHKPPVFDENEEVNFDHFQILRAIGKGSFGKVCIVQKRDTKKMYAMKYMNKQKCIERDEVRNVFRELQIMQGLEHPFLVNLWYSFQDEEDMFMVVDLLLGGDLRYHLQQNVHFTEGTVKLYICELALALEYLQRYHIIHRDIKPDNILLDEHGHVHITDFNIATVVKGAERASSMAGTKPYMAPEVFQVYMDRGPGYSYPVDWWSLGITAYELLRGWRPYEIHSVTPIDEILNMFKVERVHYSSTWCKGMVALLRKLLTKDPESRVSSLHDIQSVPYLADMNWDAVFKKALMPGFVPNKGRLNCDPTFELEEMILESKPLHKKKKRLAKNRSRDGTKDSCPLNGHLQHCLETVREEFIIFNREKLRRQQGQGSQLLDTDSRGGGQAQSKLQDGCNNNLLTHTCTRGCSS

## CNC(=O)c1ccccc1Nc1nc(Nc2ccc(N3CCN(C(=O)CCOCCOCCOCCOCCNC(=O)CCc4ccc5n4[B-](F)(F)[N+]4=C(c6ccc[nH]6)C=CC4=C5)CC3)cc2)ncc1Cl [Energy Transfer Probe 5, 2-((2-((4-(4-(1-amino-3,6,9,12-tetraoxapentadecan-15-oyl)piperazin-1-yl)phenyl)amino)-5-chloropyrimidin-4-yl)amino)-N-methylbenzamide-NanoBRET 590]
[1]
  EC50: > 1000 nM
[2]
  EC50: 600 nM
[3]
  EC50: > 1000 nM
[4]
  EC50: > 1000 nM

## Cc1nc(Nc2ncc(C(=O)Nc3c(C)cccc3Cl)s2)cc(N2CCN(CCOCCNC(=O)CCc3ccc4n3[B-](F)(F)[N+]3=C(c5ccc[nH]5)C=CC3=C4)CC2)n1 [Energy Transfer Probe 6, 2-((6-(4-(2-(2-aminoethoxy)ethyl)piperazin-1-yl)-2-methylpyrimidin-4-yl)amino)-N-(2-chloro-6-methylphenyl)thiazole-5-carboxamide-NanoBRET 590]
[5]
  EC50: 60 nM
